Laboratory results published in publication PMC3618674 (Brain research, 2012).
Read-outs that look alike come from different tables or passages of the source.

Legend:
[1] = tested on: HT22 mouse hippocampal neuronal cells; test: Glutamate-induced intracellular ROS accumulation; assay type: cell-based; conditions: 5 mM glutamate
L-DOPA methylation [2] = test: Animal experiment III: L-DOPA methylation in dopamine-depleted; assay type: in vivo, rat
[3] = tested on: kainic acid-induced hippocampal neurodegeneration; test: Animal experiment IV: kainic acid-induced rat hippocampal injury; assay type: in vivo; conditions: rats
NF-κB = test: NF-κB-Luc reporter transcriptional activity in glutamate-treated HT22 cells; assay type: cell-based, mouse; conditions: HT22 cells transfected with NF-κB-Luc; 5 mM glutamate, 40 μM (+)-catechin, 8 h
L-DOPA methylation [4] = assay type: in vivo, rat; conditions: rats
[5] = tested on: HT22 mouse hippocampal neuronal cells; test: Glutamate-induced oxidative cell death, MTT cell viability; assay type: cell-based; conditions: 5 mM glutamate, 24 h, co-treatment
[6] = tested on: 6-hydroxydopamine-induced neuronal damage; test: 6-hydroxydopamine-induced neuronal damage model; conditions: data not shown
L-DOPA methylation [7] = conditions: rats; for effect on plasma 3-OMD levels: 400 mg/kg i.p. 2 h before L-DOPA/carbidopa 20/5 mg/kg; for effect on striatal 3-OMD levels / effect on striatal dopamine levels: 400 mg/kg i.p., striatum at 6 h after L-DOPA/carbidopa 20/5 mg/kg
[8] = biological target: T1, human liver catechol-O-methyltransferase (COMT) (Homo sapiens, UniProt P21964); test: in vitro O-methylation of L-DOPA catalyzed by human liver cytosolic COMT; assay type: biochemical
T1 sequence (P21964 1-221 isoform P21964-2): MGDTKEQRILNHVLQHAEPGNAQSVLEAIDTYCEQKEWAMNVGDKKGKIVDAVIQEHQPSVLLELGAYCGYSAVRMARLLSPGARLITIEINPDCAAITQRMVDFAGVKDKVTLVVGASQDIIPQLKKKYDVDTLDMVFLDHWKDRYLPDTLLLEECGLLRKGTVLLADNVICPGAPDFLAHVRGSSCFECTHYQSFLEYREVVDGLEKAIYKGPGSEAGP

in vivo = conditions: rat, ip, 400 mg/kg
[9] = tested on: 6-hydroxydopamine-induced neurotoxicity; conditions: ref Leaver et al., 2009; cited from earlier work
[10] = reserpinized rats, co-treatment with L-DOPA/carbidopa 20/20 mg/kg
[11] = rats, reserpine 5 mg/kg i.p. 18-20 h before

Oc1cc(O)c2c(c1)O[C@H](c1ccc(O)c(O)c1)[C@@H](O)C2 [(+)-catechin]
effect on glutamate-induced accumulation of intracellular ROS [1]: reduced | effect on striatal 3-OMD levels (L-DOPA methylation [2]; [10]): markedly reduced | effect on striatal dopamine levels (L-DOPA methylation [2]; [10]): restored to levels comparable to those in normal rats | kainic acid-induced increase in GFAP expression in astrocytes ([3]; (+)-catechin 400 mg/kg 30 min before i.c.v. kainic acid, 24 h, CA3): reduced | effect on kainic acid-induced seizure behavior ([3]; (+)-catechin 30 min before i.c.v. kainic acid): no appreciable behavioral differences | effect on transcriptional activity of NF-κB (NF-κB): significantly attenuated | time required to reach maximal L-DOPA plasma concentration (L-DOPA methylation [4]; (+)-catechin 400 mg/kg 2 h before L-DOPA/carbidopa 20/20 mg/kg, vs control): modestly shifted to the right | effect on striatal 3-OMD levels (L-DOPA methylation [4]; L-DOPA/carbidopa 20/20 mg/kg): markedly reduced | effect on striatal dopamine levels (L-DOPA methylation [4]; L-DOPA/carbidopa 20/20 mg/kg): not significantly affected | effect on glutamate-induced cell death (cell viability) [5]: abrogated cell death in a concentration-dependent manner | protective effect in 6-hydroxydopamine-induced neuronal damage model [6]: did not show any appreciable protective effect | effect on plasma 3-OMD levels (L-DOPA methylation [7]): significantly reduced | effect on striatal 3-OMD levels (L-DOPA methylation [7]): significantly reduced | effect on striatal dopamine levels (L-DOPA methylation [7]): only slightly changed

Oc1cc(O)c2c(c1)O[C@H](c1ccc(O)c(O)c1)[C@H](O)C2 [(−)-epicatechin]
IC50 [8]: 10.7 ± 6.7 µM | concentration at 30 min (in vivo): 88.6 ± 39.2 µM | effect on plasma 3-OMD levels (L-DOPA methylation [7]): did not have a similar effect | effect on striatal 3-OMD levels (L-DOPA methylation [7]): no significant change | effect on striatal dopamine levels (L-DOPA methylation [7]): no significant change

O=C(O[C@@H]1Cc2c(O)cc(O)cc2O[C@@H]1c1cc(O)c(O)c(O)c1)c1cc(O)c(O)c(O)c1 [EGCG, (−)-epigallocatechin-3-gallate]
effect in 6-hydroxydopamine-induced neurotoxicity model [9]: ineffective

O=c1c(O)c(-c2ccc(O)c(O)c2)oc2cc(O)cc(O)c12 [quercetin]
IC50 [8]: 1.9 ± 0.4 µM | concentration at 30 min (in vivo): 12.6 ± 0.1 µM | effect on plasma 3-OMD levels (L-DOPA methylation [7]): did not have a similar effect | effect on striatal 3-OMD levels (L-DOPA methylation [7]): no significant change | effect on striatal dopamine levels (L-DOPA methylation [7]): no significant change

COC(=O)[C@H]1[C@H]2C[C@@H]3c4[nH]c5cc(OC)ccc5c4CCN3C[C@H]2C[C@@H](OC(=O)c2cc(OC)c(OC)c(OC)c2)[C@@H]1OC [reserpine, reference compound]
decrease of striatal dopamine levels compared to normal control animals (L-DOPA methylation [2]; [11]): over 80% | striatal dopamine levels relative to non-reserpinized control rats (L-DOPA methylation [2]; [11]): approximately 20%
